The values that follow come from ChEMBL document CHEMBL3627635, “Synthesis and anti-proliferative activity of novel azazerumbone conjugates with chalcones” (Bioorg Med Chem Lett, 2015).

Assay type in all cases: functional, cell-based
A short description of test [1]: Antiproliferative activity against human Lu cells.
The test system of another test is P338. Description: Antiproliferative activity against mouse […] cells.
In the next test the test system is SW480. As to the kind of experiment: Antiproliferative activity against human SW480 cells.
The subject of a further test is HepG2. Description: Antiproliferative activity against human HepG2 cells.
For the next test, the system named is MCF7. Description: Antiproliferative activity against human MCF7 cells.
In a further test the test system is HeLa. Description: Antiproliferative activity against human HeLa cells.

Structures are written as SMILES. Converted amounts (≈) assume the structure as drawn.

With `COc1cc(/C=C/C(=O)c2ccc(OCCn3cc(CN4C(=O)/C=C/C(C)(C)C/C=C(\C)CC/C=C/4C)nn3)cc2O)cc(OC)c1OC`, the half-inhibitory concentration (IC50) in test [1] turned out to be 1.28 µg/mL (≈ 1.91 µM); in the test with P338, 0.89 µg/mL (≈ 1.33 µM); in the test with SW480, 2.61 µg/mL (≈ 3.89 µM); in the test with HepG2, 1.44 µg/mL (≈ 2.15 µM); in the test with MCF7, 2.78 µg/mL (≈ 4.14 µM).

As for `COc1cccc(/C=C/C(=O)c2ccc(OCCCN3C(=O)/C=C/C(C)(C)C/C=C(\C)CC/C=C/3C)cc2)c1`, the 50% inhibitory concentration (IC50) was determined as 1.06 µg/mL (≈ 2.01 µM) in test [1]; 1.1 µg/mL (≈ 2.08 µM) with P338; 1.34 µg/mL (≈ 2.54 µM) with SW480; 1.38 µg/mL (≈ 2.62 µM) with HepG2; 1.37 µg/mL (≈ 2.6 µM) with MCF7.

As for `COc1ccc(/C=C/C(=O)c2ccc(OCCCN3C(=O)/C=C/C(C)(C)C/C=C(\C)CC/C=C/3C)cc2)cc1OCCCN1CCOCC1`, the IC50 in test [1] came to 1.22 µg/mL (≈ 1.82 µM); in the test on P338 it was 1.08 µg/mL (≈ 1.61 µM); in the test with SW480, 0.8 µg/mL (≈ 1.19 µM); in the test on HepG2, 1.53 µg/mL (≈ 2.28 µM); in the test with MCF7, 1.07 µg/mL (≈ 1.59 µM).

On to `COc1cc(/C=C/C(=O)c2ccc(OCCCN3C(=O)/C=C/C(C)(C)C/C=C(\C)CC/C=C/3C)cc2)cc(OC)c1OC`, for which the IC50 stood at 1.01 µg/mL (≈ 1.72 µM) in test [1]; 0.77 µg/mL (≈ 1.31 µM) in the test on P338; 0.71 µg/mL (≈ 1.21 µM) in the test with SW480; 0.99 µg/mL (≈ 1.68 µM) in the test on HepG2; 0.58 µg/mL (≈ 0.987 µM) in the test with MCF7.

Take `C/C1=C\CC(C)(C)/C=C/C(=O)N(Cc2cn(CCOc3ccc(C(=O)/C=C/c4ccc(C)cc4)c(O)c3)nn2)/C(C)=C/CC1`: the IC50 was determined as 0.91 µg/mL (≈ 1.53 µM) in test [1]; 0.92 µg/mL (≈ 1.55 µM) with P338; 1.16 µg/mL (≈ 1.95 µM) with SW480; 0.87 µg/mL (≈ 1.46 µM) in the test with HepG2; 1.21 µg/mL (≈ 2.03 µM) in the test with MCF7.

As to `COc1ccc(/C=C/C(=O)c2ccc(OCCn3cc(CN4C(=O)/C=C/C(C)(C)C/C=C(\C)CC/C=C/4C)nn3)cc2O)cc1OCCCN1CCOCC1`, the half-maximal inhibitory concentration (IC50) came to 1.56 µg/mL (≈ 2.07 µM) in test [1]; 0.96 µg/mL (≈ 1.27 µM) in the test on P338; 0.91 µg/mL (≈ 1.21 µM) with SW480; 1.59 µg/mL (≈ 2.11 µM) in the test with HepG2; 1.13 µg/mL (≈ 1.5 µM) in the test on MCF7.

`COc1ccccc1/C=C/C(=O)c1ccc(OCCCN2C(=O)/C=C/C(C)(C)C/C=C(\C)CC/C=C/2C)cc1`: the half-maximal inhibitory concentration (IC50) amounted to 2.82 µg/mL (≈ 5.34 µM) in test [1]; 0.83 µg/mL (≈ 1.57 µM) in the test with P338; 1.33 µg/mL (≈ 2.52 µM) in the test on SW480; 1.44 µg/mL (≈ 2.73 µM) in the test with HepG2; 1.56 µg/mL (≈ 2.96 µM) in the test on MCF7.

For `C/C1=C\CC(C)(C)/C=C/C(=O)N(Cc2cn(CCOc3ccc(C(=O)/C=C/c4ccc(C(C)C)cc4)c(O)c3)nn2)/C(C)=C/CC1`, the IC50 in test [1] was 0.77 µg/mL (≈ 1.24 µM); in the test with P338 it was 1.39 µg/mL (≈ 2.23 µM); with SW480, 0.85 µg/mL (≈ 1.36 µM); with HepG2, 0.84 µg/mL (≈ 1.35 µM); in the test with MCF7, 0.93 µg/mL (≈ 1.49 µM).

On to `Cc1c2ccncc2c(C)c2c1[nH]c1ccccc12` [ELLIPTECINE], for which the IC50 in test [1] is 0.63 µg/mL (≈ 2.56 µM); in the test with P338, 0.44 µg/mL (≈ 1.79 µM); in the test on SW480, 0.38 µg/mL (≈ 1.54 µM); with HepG2, 0.36 µg/mL (≈ 1.46 µM); with MCF7, 0.44 µg/mL (≈ 1.79 µM).

For `COc1ccc(/C=C/C(=O)c2ccc(OCCn3cc(CN4C(=O)/C=C/C(C)(C)C/C=C(\C)CC/C=C/4C)nn3)cc2O)cc1`, the 50% inhibitory concentration (IC50) in test [1] was 1.67 µg/mL (≈ 2.73 µM); in the test with P338 it was 1.21 µg/mL (≈ 1.98 µM); in the test with SW480, 3.24 µg/mL (≈ 5.3 µM); with HepG2 it was 2.06 µg/mL (≈ 3.37 µM); in the test with MCF7, 2.85 µg/mL (≈ 4.67 µM).

Regarding `COc1ccc(/C=C/C(=O)c2ccc(OCCCN3C(=O)/C=C/C(C)(C)C/C=C(\C)CC/C=C/3C)cc2)cc1`, the IC50 in test [1] was 2.56 µg/mL (≈ 4.85 µM); in the test with P338 it was 1.3 µg/mL (≈ 2.46 µM); in the test on SW480, 2.92 µg/mL (≈ 5.53 µM); with HepG2 it was 1.73 µg/mL (≈ 3.28 µM); in the test with MCF7, 3.17 µg/mL (≈ 6.01 µM).

For the compound `COc1ccccc1/C=C/C(=O)c1ccc(OCCn2cc(CN3C(=O)/C=C/C(C)(C)C/C=C(\C)CC/C=C/3C)nn2)cc1O`, the IC50 in test [1] stood at 2.4 µg/mL (≈ 3.93 µM); in the test on P338, 1.1 µg/mL (≈ 1.8 µM); in the test on SW480, 0.9 µg/mL (≈ 1.47 µM); with HepG2, 1.71 µg/mL (≈ 2.8 µM); in the test with MCF7, 1.17 µg/mL (≈ 1.92 µM).

On to `COc1cccc(/C=C/C(=O)c2ccc(OCCn3cc(CN4C(=O)/C=C/C(C)(C)C/C=C(\C)CC/C=C/4C)nn3)cc2O)c1`, for which the IC50 in test [1] turned out to be 0.61 µg/mL (≈ 0.999 µM); in the test with P338, 0.89 µg/mL (≈ 1.46 µM); in the test with SW480 it was 0.95 µg/mL (≈ 1.56 µM); with HepG2 it was 1.01 µg/mL (≈ 1.65 µM); in the test with MCF7, 1.12 µg/mL (≈ 1.83 µM).

As to `C/C1=C\CC(C)(C)/C=C/C(=O)N(CCCOc2ccc(C(=O)/C=C/c3ccc(C)cc3)cc2)/C(C)=C/CC1`, the IC50 is 1.18 µg/mL (≈ 2.31 µM) in test [1]; 1.29 µg/mL (≈ 2.52 µM) in the test with P338; 1.57 µg/mL (≈ 3.07 µM) in the test with SW480; 1.53 µg/mL (≈ 2.99 µM) with HepG2; 1.21 µg/mL (≈ 2.36 µM) with MCF7.

As to `C/C1=C\CC(C)(C)/C=C/C(=O)/C(C)=C/CC1` [ZERUMBONE], the IC50 was 2.5 µg/mL (≈ 11.5 µM) in the test with HeLa; 6.05 µg/mL (≈ 27.7 µM) in test [1]; 2.63 µg/mL (≈ 12 µM) with P338; 3.15 µg/mL (≈ 14.4 µM) with SW480; 13.3 µg/mL (≈ 61.1 µM) in the test with HepG2; 9.67 µg/mL (≈ 44.3 µM) in the test with MCF7.

`C/C1=C\CC(C)(C)/C=C/C(=O)N/C(C)=C/CC1`: the IC50 in test [1] was found to be 17.8 µg/mL (≈ 76.4 µM); in the test with P338, 6.25 µg/mL (≈ 26.8 µM); in the test with SW480, 6.83 µg/mL (≈ 29.3 µM); in the test on HepG2, 34.6 µg/mL (≈ 148 µM); with MCF7, 15.6 µg/mL (≈ 67 µM).

As a reminder, the IC50 is the concentration that gives 50% inhibition. Higher therefore signals weaker potency.
